Experimental data taken from patent publication US10799590B2, “Compositions containing a bitter tastant and at least one sophorolipid, and methods of reducing bitter taste attributed to a bitter tastant in an edible composition” (The United States of America, as Represented by the …, priority 2015, dated 2020).

Legend:
T1R3 = test: Chorda tympani whole-nerve responses to lingual taste stimuli, T1R3-KO mice; format: in vivo; settings: lingual application (FIG. 6A, 7)
Experimental: (§1) Mouse model for sweet property and bitter-masking assay. Recordings of chorda tympani (CT) whole-nerve responses: All protocols involving animals were approved by the Institutional Animal Care and Use Committees at the Monell Center prior to the experiments. The study was performed with mice from two strains: C57BL/6J inbred strain (B6; Jackson Laboratory, Bar Harbor, Me.) bearing the wild-type Tas1r3 allele was used as the control, and the C57BL/6J-Tas1r3^tm1Rjm “gene-knockout” strain (T1R3-KO) lacking the entire T1R3 coding region and devoid of T1R3 protein ([…]., et al., Science, 301: 850-853 (2003)). Afferent signals from taste cells are relayed to the brain via three major gustatory nerves: the chorda tympani, glossopharyngeal, and greater superficial petrosal. […] Neural responses resulting from chemical stimulations of the tongue were fed into an amplifier (Grass Instruments, West Warwick, R.I.) and monitored on an oscilloscope and an audio monitor. Whole-nerve responses were integrated with a time constant of 1.0 s and recorded using a computer for later analysis using a PowerLab system (PowerLab/sp4; AD Instruments, Colorado Springs, Colo.). […] To analyze nerve responses to each stimulus, the magnitudes of integrated responses at 5, 10, 15, 20, and 25 s after stimulus onset were measured and averaged. […]

[1] = system: chorda tympani nerve of wild-type B6 mice; test: Chorda tympani whole-nerve responses to lingual taste stimuli, wild-type B6 mice; format: in vivo; settings: lingual application (FIG. 6B, 7)
Experimental: as §1

[2] = system: cultured human fungiform taste papillae cells (HBO cells); test: Calcium imaging of cultured human fungiform taste papillae (HBO) cells: response frequency, estimation of sweet potency; format: cell-based
Source text: In vitro cell-based assay of sweet property. Establishment and maintenance of cultures of human fungiform taste papillae cells (HBO cells): We previously established the current proprietary protocol (Ozdener, H., et al., Chem. Senses, 31(3): 279-90 (2006); Ozdener, M. H., et al., Chem. Senses, 36(7): 601-12 (2011); Ozdener, H., et al., Isolation and culture of human fungiform taste papillae cells, J. Vis. Exp., 2012 May 17;(63):e3730) which allowed us to culture human fungiform taste papillae cells retaining their physiological and molecular characteristics for more than a year. […] The human fungiform taste papillae cells were cultured according to protocols that we have published (Ozdener et al. 2006, Ozdener et al. 2011). Human fungiform taste papillae were removed and immediately placed into an isolation solution followed by enzymatic digestion. Digested fungiform papillae were then gently minced with a surgical razor and seeded on collagen type-1 coated coverslips and incubated at 36° C. in a humidified environment containing 5% CO2. The fungiform taste papillae cells were cultured in Iscove's Modified Dulbecco's medium containing 10% fetal bovine serum, 1:5 ratio of MCDB (Molecular, Cellular, and Developmental Biology) 153 medium, and a triple cocktail of antibiotics (100 U/mL/100 μg/mL, penicillin/streptomycin, and 0.5 μg/mL fungizone). Culture medium was replaced every 5-7 days by one-third of fresh culture medium. Human fungiform taste papillae cells have been maintained in culture for a period of more than 1 year without loss of viability and with retention of the molecular and biochemical properties of acutely isolated taste cells (Ozdener et al., 2011). Calcium imaging: Cultured taste cells grown for 3-4 days glass coverslips which were loaded for 30-60 min with the calcium sensitive dye fura-2 by incubating the cells in Ringer solution (145 mM NaCl, 5 mM KCl, 1 mM MgCl2, 1 mM CaCl2, 1 mM Na-pyruvate, 20 mM Hepes-Na and Cellobiose 15 mM, pH 7.2 with osmolarity adjusted to 300-310 by 5M NaCl) supplemented with […] (Molecular Probes Inc., Eugene, Oreg.) and 10 mg/ml Pluronic® F127 (Molecular Probes Inc.). Coverslips were then placed in a recording chamber and continuously bathed with Ringer solution superfusion. Stimuli were dissolved in Ringer and then pH and osmolarity readjusted if needed. Cells were exposed to sweet ([…]), bitter mixture (PTC (phenylthiocarbamide)) 2mM+Salicin 5 mM+Denatonium 2 mM), guaifenesin (GF, 3 mM) and acetaminophen (APAP, 3 mM), and various sophorolipids stimuli: sophorose, sophorolipid palmitic acid, sophorolipid stearic acid, sophorolipid oleic acid. […]

Structure (SMILES)	chorda tympani responses (T1R3)	chorda tympani responses [1]	%-responsive cells ([2]; cultured human taste cells, concentration 5 mM)	Concentration adjusted response frequency ([2]; tested at 5 mM, sucralose 5 mM is the standard)
OC[C@H]1O[C@@](CO)(O[C@H]2O[C@H](CO)[C@@H](O)[C@H](O)[C@H]2O)[C@@H](O)[C@@H]1O [sucrose]	nearly absent	present	–	–
OC[C@H]1O[C@H](O[C@]2(CCl)O[C@H](CCl)[C@@H](O)[C@@H]2O)[C@H](O)[C@@H](O)[C@H]1Cl [Sucralose, sucralose]	–	–	16.67%	16.67
